From patent publication US11730714B2, “Compounds for the treatment of neuromuscular disorders” (NMD PHARMA A/S, priority 2017, dated 2023)

Columns and labels:
[1] = tested on: isolated rat soleus muscles; test: Recovery of nerve-stimulated force in isolated rat soleus muscles with ACh receptors inhibited by 2 μM rocuronium; format: cell-based; settings: 50 μM C8 added after 2 μM rocuronium had reduced force to 51±5%; 8 muscles; p<0.01
Method: In a separate series of experiments with 8 isolated rat soleus muscles, ACh receptors were inhibited using 2 μM rocuronium, which is a clinically used neuromuscular blocking agent. Under these conditions the nerve-stimulated force was reduced to 51±5% of force before rocuronium. […] This illustrates the potential of these compounds to be used as reversal agents.

rats injected with MAB35 = test: Rotarod running performance in passive myasthenia gravis induced in rats with MAB35 antibody; format: in vivo, rat; settings: after stable reduction in performance by MAB35, vs sham
Method: FIG. 10. […] Prior to I.P. injection of MAB35 the animals had been familiarized to the rotarod over three training sessions distributed over two days. […] After this treatment performance was monitored every second hour. *Indicates significant different as evaluated using student t-test.
In both series of experiments, running performance was tested on a rotarod using a protocol where the rod was accelerated gradually over a 5 min period, and the running time and covered distance before falling off the rod were measured. […] Experiments with tubocurarine were carried out over two days, and on each day the effect of tubocurarine on running performance was tested. On the first day only tubocurarine was injected. […] On the second day, the animals were first allowed to run on the rotarod, and all animals performed normally. […] The allocation of the animals into the two groups (C8 or sham) was random and unknown to the experimenter (blinded experimental design).
In experiments with MAB35, animals were first familiarized with the rotarod over two consecutive days and then injected I.P. with MAB35. After injection, rotarod performance was then again monitored regularly over the consecutive two days. […] A considerable number of animals, however, became moribund failing to walk and they had altered ventilation (rapid) and pronounced ptosis. These animals were not included in experiments. […]

C[C@H](Oc1ccc(Br)cc1)C(=O)O [Compound C8, (2S)-2-(4-bromophenoxy)propanoic acid]
nerve-stimulated contractile force recovered to % of force before rocuronium [1]: 81±4%
rotarod performance after injection (rats injected with MAB35; C8 20 mg/kg): decline was reduced
rotarod performance after injection (rats injected with MAB35; C8 30 mg/kg): clear recovery of performance
